In PubChem BioAssay AID2060888 (Molecular Pharmacology Branch, DTP, NCI, 2025):

System: 695427-040-R-J1-PDC complex spheroid viability
Assay: Anticancer human tumor 695427-040-R-J1-PDC patient-derived colon adenocarcinoma cell line growth inhibition [RAS]
Settings: for IC50: curve of first compound; for viability, T/C: stronger effect = lower value
Method in brief: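 Tumour cells grown as complex spheroids with HUVEC endothelial cells and mesenchymal stem cells, treated with RAS pathway inhibitor combinations. Each agent spans half-log steps from near clinical Cmax, or 10 microM where Cmax is unknown.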

[1] = second compound 0.000949 µM, first compound 0.0316 µM
[2] = second compound 0.000949 µM, first compound 0.1 µM
[3] = second compound 0.000949 µM, first compound 0.316 µM
[4] = second compound 0.000949 µM, first compound 1 µM
[5] = second compound 0.000949 µM, first compound 3.16 µM
[6] = second compound 0.000949 µM, first compound 10 µM
[7] = second compound 0.003 µM, first compound 0.0316 µM
[8] = second compound 0.003 µM, first compound 0.1 µM
[9] = second compound 0.003 µM, first compound 0.316 µM
[10] = second compound 0.003 µM, first compound 1 µM
[11] = second compound 0.003 µM, first compound 3.16 µM
[12] = second compound 0.003 µM, first compound 10 µM
[13] = second compound 0.00949 µM, first compound 0.0316 µM
[14] = second compound 0.00949 µM, first compound 0.1 µM
[15] = second compound 0.00949 µM, first compound 0.316 µM
[16] = second compound 0.00949 µM, first compound 1 µM
[17] = second compound 0.00949 µM, first compound 3.16 µM
[18] = second compound 0.00949 µM, first compound 10 µM
[19] = second compound 0.03 µM, first compound 0.0316 µM
[20] = second compound 0.03 µM, first compound 0.1 µM
[21] = second compound 0.03 µM, first compound 0.316 µM
[22] = second compound 0.03 µM, first compound 1 µM
[23] = second compound 0.03 µM, first compound 3.16 µM
[24] = second compound 0.03 µM, first compound 10 µM
[25] = second compound 0.0949 µM, first compound 0.0316 µM
[26] = second compound 0.0949 µM, first compound 0.1 µM
[27] = second compound 0.0949 µM, first compound 0.316 µM
[28] = second compound 0.0949 µM, first compound 1 µM
[29] = second compound 0.0949 µM, first compound 3.16 µM
[30] = second compound 0.0949 µM, first compound 10 µM
[31] = second compound 0.3 µM, first compound 0.0316 µM
[32] = second compound 0.3 µM, first compound 0.1 µM
[33] = second compound 0.3 µM, first compound 0.316 µM
[34] = second compound 0.3 µM, first compound 1 µM
[35] = second compound 0.3 µM, first compound 3.16 µM
[36] = second compound 0.3 µM, first compound 10 µM
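Also: viability read after seven days of drug exposure.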
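For viability, T/C in this document: 100% = DMSO vehicle control viability.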

## CC1(O)CCCC1n1c(=O)c(C(F)F)cc2cnc(NC3CCN(S(C)(=O)=O)CC3)nc21 (stereo unspecified) + CCn1c(-c2cccnc2C(C)OC)c2c3cc(ccc31)N1CCOC(CC(NC(=O)C(C(C)C)N(C)C(=O)C3(F)CCN(C(=O)C#CC(C)(C)N(C)C)CC3)C(=O)N3CCCC(N3)C(=O)OCC(C)(C)C2)C1
Second compound 0.000949 µM
  IC50: > 10 µM
Second compound 0.003 µM
  IC50: > 10 µM
Second compound 0.00949 µM
  IC50: > 10 µM
Second compound 0.03 µM
  IC50: > 10 µM
Second compound 0.0949 µM
  IC50: > 10 µM
Second compound 0.3 µM
  IC50: 9.98 µM
[1]
  viability, T/C: 102%
[2]
  viability, T/C: 104%
[3]
  viability, T/C: 90.7%
[4]
  viability, T/C: 104%
[5]
  viability, T/C: 93.1%
[6]
  viability, T/C: 79.4%
[7]
  viability, T/C: 102%
[8]
  viability, T/C: 98.7%
[9]
  viability, T/C: 95.9%
[10]
  viability, T/C: 103%
[11]
  viability, T/C: 125%
[12]
  viability, T/C: 86.3%
[13]
  viability, T/C: 108%
[14]
  viability, T/C: 80.8%
[15]
  viability, T/C: 97.5%
[16]
  viability, T/C: 87.6%
[17]
  viability, T/C: 124%
[18]
  viability, T/C: 88.6%
[19]
  viability, T/C: 90.2%
[20]
  viability, T/C: 80%
[21]
  viability, T/C: 81.3%
[22]
  viability, T/C: 97.9%
[23]
  viability, T/C: 115%
[24]
  viability, T/C: 73.6%
[25]
  viability, T/C: 77.3%
[26]
  viability, T/C: 95.7%
[27]
  viability, T/C: 89.4%
[28]
  viability, T/C: 113%
[29]
  viability, T/C: 124%
[30]
  viability, T/C: 71.3%
[31]
  viability, T/C: 77%
[32]
  viability, T/C: 94%
[33]
  viability, T/C: 85%
[34]
  viability, T/C: 95.7%
[35]
  viability, T/C: 95.9%
[36]
  viability, T/C: 49.9%

## CCN1CCN(Cc2ccc(Nc3ncc(F)c(-c4cc(F)c5nc(C)n(C(C)C)c5c4)n3)nc2)CC1 + CCn1c(-c2cccnc2C(C)OC)c2c3cc(ccc31)N1CCOC(CC(NC(=O)C(C(C)C)N(C)C(=O)C3(F)CCN(C(=O)C#CC(C)(C)N(C)C)CC3)C(=O)N3CCCC(N3)C(=O)OCC(C)(C)C2)C1
Second compound 0.000949 µM
  IC50: > 1 µM
Second compound 0.003 µM
  IC50: > 1 µM
Second compound 0.00949 µM
  IC50: > 1 µM
Second compound 0.03 µM
  IC50: > 1 µM
Second compound 0.0949 µM
  IC50: > 1 µM
Second compound 0.3 µM
  IC50: > 1 µM
Second compound 0.000949 µM, first compound 0.00316 µM
  viability, T/C: 109%
Second compound 0.000949 µM, first compound 0.01 µM
  viability, T/C: 88.1%
[1]
  viability, T/C: 84.9%
[2]
  viability, T/C: 74.2%
[3]
  viability, T/C: 99.1%
[4]
  viability, T/C: 87.1%
Second compound 0.003 µM, first compound 0.00316 µM
  viability, T/C: 100%
Second compound 0.003 µM, first compound 0.01 µM
  viability, T/C: 86.3%
[7]
  viability, T/C: 86.3%
[8]
  viability, T/C: 82.3%
[9]
  viability, T/C: 86.2%
[10]
  viability, T/C: 93%
Second compound 0.00949 µM, first compound 0.00316 µM
  viability, T/C: 118%
Second compound 0.00949 µM, first compound 0.01 µM
  viability, T/C: 84.3%
[13]
  viability, T/C: 87.1%
[14]
  viability, T/C: 88.9%
[15]
  viability, T/C: 91.2%
[16]
  viability, T/C: 53.9%
Second compound 0.03 µM, first compound 0.00316 µM
  viability, T/C: 96.6%
Second compound 0.03 µM, first compound 0.01 µM
  viability, T/C: 88.1%
[19]
  viability, T/C: 74.4%
[20]
  viability, T/C: 84.4%
[21]
  viability, T/C: 107%
[22]
  viability, T/C: 90.7%
Second compound 0.0949 µM, first compound 0.00316 µM
  viability, T/C: 99.2%
Second compound 0.0949 µM, first compound 0.01 µM
  viability, T/C: 79%
[25]
  viability, T/C: 91.8%
[26]
  viability, T/C: 87.3%
[27]
  viability, T/C: 60.6%
[28]
  viability, T/C: 76.6%
Second compound 0.3 µM, first compound 0.00316 µM
  viability, T/C: 87.8%
Second compound 0.3 µM, first compound 0.01 µM
  viability, T/C: 83.2%
[31]
  viability, T/C: 84.9%
[32]
  viability, T/C: 79%
[33]
  viability, T/C: 65.9%
[34]
  viability, T/C: 60.6%

## C[C@@H](NC(=O)c1ncnc(N)c1Cl)c1ncc(C(=O)Nc2cc(C(F)(F)F)c(Cl)cn2)s1 + CCn1c(-c2cccnc2C(C)OC)c2c3cc(ccc31)N1CCOC(CC(NC(=O)C(C(C)C)N(C)C(=O)C3(F)CCN(C(=O)C#CC(C)(C)N(C)C)CC3)C(=O)N3CCCC(N3)C(=O)OCC(C)(C)C2)C1
Second compound 0.000949 µM
  IC50: > 10 µM
Second compound 0.003 µM
  IC50: > 10 µM
Second compound 0.00949 µM
  IC50: > 10 µM
Second compound 0.03 µM
  IC50: > 10 µM
Second compound 0.0949 µM
  IC50: > 10 µM
Second compound 0.3 µM
  IC50: > 10 µM
[1]
  viability, T/C: 86.3%
[2]
  viability, T/C: 99.1%
[3]
  viability, T/C: 92.7%
[4]
  viability, T/C: 106%
[5]
  viability, T/C: 96.8%
[6]
  viability, T/C: 85.7%
[7]
  viability, T/C: 82.2%
[8]
  viability, T/C: 93.6%
[9]
  viability, T/C: 113%
[10]
  viability, T/C: 98.3%
[11]
  viability, T/C: 99.2%
[12]
  viability, T/C: 68.5%
[13]
  viability, T/C: 96.3%
[14]
  viability, T/C: 81.6%
[15]
  viability, T/C: 105%
[16]
  viability, T/C: 80.2%
[17]
  viability, T/C: 102%
[18]
  viability, T/C: 78.1%
[19]
  viability, T/C: 81%
[20]
  viability, T/C: 99%
[21]
  viability, T/C: 115%
[22]
  viability, T/C: 97.5%
[23]
  viability, T/C: 104%
[24]
  viability, T/C: 82.4%
[25]
  viability, T/C: 67.9%
[26]
  viability, T/C: 97.3%
[27]
  viability, T/C: 96.6%
[28]
  viability, T/C: 104%
[29]
  viability, T/C: 89.8%
[30]
  viability, T/C: 67.1%
[31]
  viability, T/C: 78.8%
[32]
  viability, T/C: 94.4%
[33]
  viability, T/C: 94.7%
[34]
  viability, T/C: 98%
[35]
  viability, T/C: 97.8%
[36]
  viability, T/C: 67.9%
